# Experimental data taken from patent US7691901B2, “Carotenoid analogs or derivatives for the inhibition and amelioration of inflammation” (Cardax Pharmaceuticals Inc., priority 2004, dated 2010).
# Tests used:
# [1] = system: differential cell counts (macrophages, monocytes, eosinophils, lymphocytes, neutrophils, and erythrocytes); experiment: Thioglycollate/Zymosan-induced peritonitis model: differential cell counts of peritoneal lavage cells; type: in vivo, mice; set-up: RBC, MEAN / RBC, MEDIAN / WBC, MEAN / WBC, MEDIAN: unit not given here
# Description: Thioglycollate/Zymosan—Induced Peritonitis Model: Wild-type mice were administered either 500 mg/kg body weight of disodium disuccinate astaxanthin (ddAst/Cardax™) in an oil emulsion vehicle, or normal saline (NS) as a negative control, by oral gavage at 24 hours intervals beginning 7 days prior to the induction of peritonitis. Peritonitis was induced experimentally as follows: mice were injected intraperitoneally with 1 ml of 4% by weight thioglycollate (Tg) broth, to induce the recruitment of proinflammatory cells to the peritoneum. Either 16 hours or 72 hours after recruitment, approximately half of the mice were injected intraperitoneally with 250 mg/kg body weight of zymosan (Z) for a further 4 hours. The mice not receiving zymosan underwent no further treatment. Peritoneal lavage was performed in control animals or animals treated with (ddAst) 16 hours post Tg injection, or 20 h following the combination of both Tg injection (16 hours) followed by Z injection (4 hours), as indicated (Tg/Z). Peritoneal lavages were performed with phosphate-buffered saline containing antioxidant (0.1 mM butylated hydroxytoluene (BHT)) and 2 mM of the metal chelator diethylenetriamine pentaacetic acid (DTPA) according to established practices in the art. The lavage suspensions were transferred to screw-capped tubes under an argon atmosphere, and immediately centrifuged at 1000 rpm in a table top microcentrifuge for 10 min at 4° C. to remove whole cells and debris. All analyses of lipid peroxidation products was performed on cell-free lavage supernatants. Cell pellets were resuspended in phosphate-buffered saline containing 0.1 mM BHT and 0.1 mM DTPA, and differential cell counts (macrophages, monocytes, eosinophils, lymphocytes, neutrophils, and erythrocytes) were performed on cytospun preparations of isolated cells according to established procedures in the art.
# [2] = Single- and multiple-dose pharmacokinetics of an oral preparation in a murine model; type: in vivo; settings: oral preparation of the racemic compound in lipophilic emulsion
smiles,measurement,setting,value
"CC1=C(/C=C/C(C)=C/C=C/C(C)=C/C=C/C=C(C)/C=C/C=C(C)/C=C/C2=C(C)C(=O)C(OC(=O)CCC(=O)O)CC2(C)C)C(C)(C)CC(OC(=O)CCC(=O)O)C1=O (centres unmarked) [Cardax, disodium disuccinate astaxanthin]","ALV MAC %, MEAN",[1]; 16 Hour Thioglycollate,3.000%
same,"EOSIN %, MEAN",[1]; 16 Hour Thioglycollate,6.000%
same,"LYMPHS %, MEAN",[1]; 16 Hour Thioglycollate,23.000%
same,"MONOS %, MEAN",[1]; 16 Hour Thioglycollate,39.667%
same,"NEUTRO %, MEAN",[1]; 16 Hour Thioglycollate,25.333%
same,"OTHER %, MEAN",[1]; 16 Hour Thioglycollate,2.667%
same,"RBC, MEAN",[1]; 16 Hour Thioglycollate,449.33
same,"REACTIVE %, MEAN",[1]; 16 Hour Thioglycollate,0.333%
same,"RES EP %, MEAN",[1]; 16 Hour Thioglycollate,0.000%
same,"WBC, MEAN",[1]; 16 Hour Thioglycollate,528.67
same,"ALV MAC %, MEDIAN",[1]; 16 Hour Thioglycollate,3.000%
same,"EOSIN %, MEDIAN",[1]; 16 Hour Thioglycollate,4.000%
same,"LYMPHS %, MEDIAN",[1]; 16 Hour Thioglycollate,19.000%
same,"MONOS %, MEDIAN",[1]; 16 Hour Thioglycollate,35.000%
same,"NEUTRO %, MEDIAN",[1]; 16 Hour Thioglycollate,21.000%
same,"OTHER %, MEDIAN",[1]; 16 Hour Thioglycollate,2.000%
same,"RBC, MEDIAN",[1]; 16 Hour Thioglycollate,350.00
same,"REACTIVE %, MEDIAN",[1]; 16 Hour Thioglycollate,0.000%
same,"RES EP %, MEDIAN",[1]; 16 Hour Thioglycollate,0.000%
same,"WBC, MEDIAN",[1]; 16 Hour Thioglycollate,475.00
same,"ALV MAC %, MEAN",[1]; 72 Hour Thioglycollate,15.667%
same,"EOSIN %, MEAN",[1]; 72 Hour Thioglycollate,1.667%
same,"LYMPHS %, MEAN",[1]; 72 Hour Thioglycollate,53.000%
same,"MONOS %, MEAN",[1]; 72 Hour Thioglycollate,27.000%
same,"NEUTRO %, MEAN",[1]; 72 Hour Thioglycollate,0.000%
same,"OTHER %, MEAN",[1]; 72 Hour Thioglycollate,2.333%
same,"RBC, MEAN",[1]; 72 Hour Thioglycollate,90.333
same,"REACTIVE %, MEAN",[1]; 72 Hour Thioglycollate,0.333%
same,"RES EP %, MEAN",[1]; 72 Hour Thioglycollate,0.000%
same,"WBC, MEAN",[1]; 72 Hour Thioglycollate,435.33
same,"ALV MAC %, MEDIAN",[1]; 72 Hour Thioglycollate,15.000%
same,"EOSIN %, MEDIAN",[1]; 72 Hour Thioglycollate,1.000%
same,"LYMPHS %, MEDIAN",[1]; 72 Hour Thioglycollate,55.000%
same,"MONOS %, MEDIAN",[1]; 72 Hour Thioglycollate,32.000%
same,"NEUTRO %, MEDIAN",[1]; 72 Hour Thioglycollate,0.000%
same,"OTHER %, MEDIAN",[1]; 72 Hour Thioglycollate,2.000%
same,"RBC, MEDIAN",[1]; 72 Hour Thioglycollate,69.000
same,"REACTIVE %, MEDIAN",[1]; 72 Hour Thioglycollate,0.000%
same,"RES EP %, MEDIAN",[1]; 72 Hour Thioglycollate,0.000%
same,"WBC, MEDIAN",[1]; 72 Hour Thioglycollate,448.00
same,plasma and tissue levels of nonesterified astaxanthin,[2],significant plasma and tissue levels of nonesterified astaxanthin were achieved
